The record followed here is paper PMC2825241, “Uptake of purines in Plasmodium falciparum-infected human erythrocytes is mostly mediated by the human Equilibrative Nucleoside Transporter and the human Facilitative Nucleobase Transporter” (2010).

By Km is commonly meant the substrate concentration at which the rate is half of its maximum.

This test concerns the target T1, human equilibrative nucleoside transporter (hENT1) (Homo sapiens, UniProt Q99808).
T1 construct: gene SLC29A1; endogenous transporter in intact human erythrocytes
T1 sequence (Q99808 2-456): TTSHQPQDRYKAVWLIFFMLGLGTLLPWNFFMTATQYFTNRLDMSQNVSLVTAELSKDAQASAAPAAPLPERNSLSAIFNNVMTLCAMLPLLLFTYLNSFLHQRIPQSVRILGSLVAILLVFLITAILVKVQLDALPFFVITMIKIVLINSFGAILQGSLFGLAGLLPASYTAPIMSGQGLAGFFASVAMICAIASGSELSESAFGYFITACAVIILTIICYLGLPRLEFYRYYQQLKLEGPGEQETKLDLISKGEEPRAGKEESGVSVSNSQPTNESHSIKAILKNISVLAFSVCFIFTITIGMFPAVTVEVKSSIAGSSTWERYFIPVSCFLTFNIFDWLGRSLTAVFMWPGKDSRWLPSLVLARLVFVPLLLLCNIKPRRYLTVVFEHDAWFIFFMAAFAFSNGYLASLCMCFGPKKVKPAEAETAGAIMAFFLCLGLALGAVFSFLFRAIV
The experiment in a line: saturable [3H]-uridine uptake into uninfected human erythrocytes (Km). The format is cell-based.

Consider `O=c1ccn([C@@H]2O[C@H](CO)[C@@H](O)[C@H]2O)c(=O)[nH]1` [uridine], for which the Km was 177 ± 30 µM.
